The record followed here is ChEMBL document CHEMBL1649347, “Clerodane diterpenes from Casearia arguta that act as synergistic TRAIL sensitizers” (J Nat Prod, 2010).

Structures are written as SMILES.

Assay [1] has as its system ACHN. Nature of the assay: Ratio of EC50 for TRAIL-resistant human ACHN cells to EC50 for TRAIL-resistant human ACHN cells in presence of TRAIL. The class given is functional.
In assay [2] the test system is ACHN. Kind of assay: Cytotoxicity against TRAIL-resistant human ACHN cells assessed as cell killing after 20 to 24 hrs in presence of TRAIL. The class given is functional, cell-based.
Assay [3] deals with ACHN. Kind of assay: Cytotoxicity against TRAIL-resistant human ACHN cells assessed as cell killing after 20 to 24 hrs. It is filed as functional, cell-based.

As a reminder, the EC50 is the concentration giving half of the maximal effect. As to `C=C/C(C)=C/C[C@]1(C)[C@H](C)C[C@@H](O)[C@@]23C(=C[C@H](OC(=O)/C=C\C=C\CCCCC)C[C@@H]12)[C@@H](OC(C)=O)O[C@H]3OC(C)=O` [ARGUTIN A], the “Ratio EC50” value in the assay with ACHN [1] was determined as 2.3. Moreover, the EC50 with ACHN [2] turned out to be 2.4 µM; in the assay with ACHN [3] it was 5.4 µM.

Regarding `C=C/C(C)=C/C[C@]1(C)[C@H](C)C[C@@H](OC(=O)/C=C/C=C/CCCCC)[C@@]23C(=C[C@H](O)C[C@@H]12)[C@@H](OC(C)=O)O[C@H]3OC(C)=O` [ARGUTIN B], the “Ratio EC50” value in the assay on ACHN [1] turned out to be 3. Besides, the EC50 in the assay on ACHN [2] came to 4.6 µM; with ACHN [3], 13.8 µM.

For the compound `C=C/C(C)=C/C[C@]1(C)[C@H](C)[C@@H](O)[C@@H](O)[C@@]23C(=C[C@H](OC(=O)/C=C\C=C\CCCCC)C[C@@H]12)[C@@H](OC(C)=O)O[C@H]3OC(C)=O` [ARGUTIN C], the “Ratio EC50” value in the assay with ACHN [1] amounted to 1.9. For the same compound, the EC50 was 1.6 µM in the assay on ACHN [2] and 3.1 µM with ACHN [3].

Regarding `C=C/C(C)=C/C[C@]1(C)[C@H](C)[C@@H](O)[C@@H](OC(=O)/C=C/C=C/CCCCC)[C@@]23C(=C[C@H](O)C[C@@H]12)[C@@H](OC(C)=O)O[C@H]3OC(C)=O` [ARGUTIN D], the “Ratio EC50” value in the assay with ACHN [1] stood at 1.6. In addition, the EC50 in the assay with ACHN [2] came to 8.7 µM; in the assay with ACHN [3], 14.3 µM.

Turning to `C=C/C(C)=C/C[C@]1(C)[C@H](C)[C@@H](O)C[C@@]23C(=C[C@H](OC(=O)/C=C\C=C\CCCCC)C[C@@H]12)[C@@H](OC(C)=O)O[C@H]3OC(C)=O` [ARGUTIN E], the “Ratio EC50” value in the assay on ACHN [1] is listed as 1.5. For the same compound, the EC50 in the assay with ACHN [2] worked out at 2.2 µM; in the assay with ACHN [3], 3.3 µM.

Take `C=CC(=C)[C@@H](C[C@]1(C)[C@H](C)C[C@@H](O)[C@@]23C(=C[C@H](OC(=O)/C=C\C=C\CCCCC)C[C@@H]12)[C@@H](OC(C)=O)O[C@H]3OC(C)=O)OO` [ARGUTIN F]: in the assay on ACHN [1], the “Ratio EC50” value was found to be 1.5. The EC50 in the assay with ACHN [2] was determined as 7.1 µM; in the assay on ACHN [3], 10.4 µM.

On to `C=CC(=C)[C@@H](C[C@]1(C)[C@H](C)[C@@H](O)[C@@H](O)[C@@]23C(=C[C@H](OC(=O)/C=C\C=C\CCCCC)C[C@@H]12)[C@@H](OC(C)=O)O[C@H]3OC(C)=O)OO` [ARGUTIN G], for which, in the assay on ACHN [1], the “Ratio EC50” value worked out at 1.5. Moreover, the EC50 in the assay with ACHN [2] was 2.8 µM; with ACHN [3], 4.2 µM.
